From paper PMC8645336, “Benchmarking a highly selective USP30 inhibitor for enhancement of mitophagy and pexophagy” (Life Science Alliance, 2021) come the findings set out here.

Molecules are shown by their SMILES.

For one experiment, the target named is T1, BAP1 (Homo sapiens, UniProt Q92560).
T1 sequence (Q92560 1-729): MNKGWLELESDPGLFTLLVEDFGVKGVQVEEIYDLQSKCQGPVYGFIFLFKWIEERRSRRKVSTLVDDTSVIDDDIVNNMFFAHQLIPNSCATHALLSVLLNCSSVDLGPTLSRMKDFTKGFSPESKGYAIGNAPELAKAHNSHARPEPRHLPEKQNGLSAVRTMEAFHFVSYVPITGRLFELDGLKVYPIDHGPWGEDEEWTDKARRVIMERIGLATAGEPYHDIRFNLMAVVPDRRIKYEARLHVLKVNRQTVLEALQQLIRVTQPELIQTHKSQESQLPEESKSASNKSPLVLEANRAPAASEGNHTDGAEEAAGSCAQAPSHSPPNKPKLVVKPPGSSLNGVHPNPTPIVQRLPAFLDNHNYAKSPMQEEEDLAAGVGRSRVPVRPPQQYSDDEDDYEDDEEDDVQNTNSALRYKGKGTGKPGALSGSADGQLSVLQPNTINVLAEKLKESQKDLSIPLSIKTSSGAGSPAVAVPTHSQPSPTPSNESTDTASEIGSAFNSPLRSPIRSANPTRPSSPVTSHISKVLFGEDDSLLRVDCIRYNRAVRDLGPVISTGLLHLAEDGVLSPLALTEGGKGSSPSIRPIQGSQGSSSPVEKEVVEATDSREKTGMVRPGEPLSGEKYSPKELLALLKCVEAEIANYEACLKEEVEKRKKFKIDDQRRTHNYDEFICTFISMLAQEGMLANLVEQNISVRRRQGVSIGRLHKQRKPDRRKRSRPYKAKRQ
The experiment in a line: biochemical. More on the design: Ubiquigent DUB profiler selectivity panel, remaining enzyme activity as % of control. To be noted: read-out: % of control remaining. Put shortly:
(§1)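 CMPD-39 selectivity was profiled at 1-100 μM across >40 DUBs. Cellular engagement used 2 h CMPD-39 pretreatment, then HA-Ub-PA probe for 10 min at 37°C, with USP30 band shift on immunoblot. TOMM20 ubiquitylation was blotted in YFP-PRKN hTERT-RPE1 cells after 1 h antimycin A/oligomycin A (1 μM each).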

The target of another experiment is T2, USP45 (Homo sapiens, UniProt Q70EL2).
T2 sequence (Q70EL2 1-814): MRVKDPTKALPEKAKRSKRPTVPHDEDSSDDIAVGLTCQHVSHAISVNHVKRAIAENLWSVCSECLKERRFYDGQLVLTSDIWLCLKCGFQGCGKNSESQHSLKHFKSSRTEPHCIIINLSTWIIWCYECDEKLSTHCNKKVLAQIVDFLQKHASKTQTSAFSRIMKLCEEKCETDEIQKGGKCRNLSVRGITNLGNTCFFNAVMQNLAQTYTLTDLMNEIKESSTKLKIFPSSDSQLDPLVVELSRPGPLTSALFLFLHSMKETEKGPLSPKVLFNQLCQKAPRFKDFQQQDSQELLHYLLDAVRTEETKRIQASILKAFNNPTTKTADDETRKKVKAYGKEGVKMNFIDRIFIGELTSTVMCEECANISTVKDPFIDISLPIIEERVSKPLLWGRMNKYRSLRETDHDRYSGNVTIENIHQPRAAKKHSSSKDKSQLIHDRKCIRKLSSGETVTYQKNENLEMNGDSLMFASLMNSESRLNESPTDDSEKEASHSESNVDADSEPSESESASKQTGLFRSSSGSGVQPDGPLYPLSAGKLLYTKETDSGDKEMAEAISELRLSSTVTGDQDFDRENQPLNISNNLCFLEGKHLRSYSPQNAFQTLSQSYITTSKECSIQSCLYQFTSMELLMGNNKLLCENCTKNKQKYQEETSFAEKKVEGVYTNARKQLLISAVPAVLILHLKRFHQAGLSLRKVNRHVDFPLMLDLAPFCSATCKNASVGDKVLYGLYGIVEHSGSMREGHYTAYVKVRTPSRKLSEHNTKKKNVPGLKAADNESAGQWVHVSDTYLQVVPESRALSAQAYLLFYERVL
Kind of experiment: biochemical. More on the design: Ubiquigent DUB profiler selectivity panel, remaining enzyme activity as % of control. To be noted: read-out: % of control remaining. Put shortly:
as §1

As to `CC(C)(C)NS(=O)(=O)c1ccc(NC(=O)[C@H](Cc2ccccc2)NC(=O)c2ccc(F)cc2)cc1` [compound 39, CMPD-39], on BAP1, the remaining activity at 1 µM was 104%, the remaining activity at 10 µM came to 89% and the remaining activity at 100 µM is 96.5%. On USP45, the remaining activity at 1 µM is 98.8%, the remaining activity at 10 µM came out at 95% and the remaining activity at 100 µM worked out at 100%.
